Source: publication PMC9644403, “L-type Amino Acid Transporter 1 Utilizing Ferulic Acid Derivatives Show Increased Drug Delivery in the Mouse Pancreas Along with Decreased Lipid Peroxidation and Prostaglandin Production” (Molecular Pharmaceutics, 2022)
Read-outs that look alike come from different tables or passages of the source.

Experiments:
[1] = In vivo pharmacokinetics in mouse pancreas, liver and kidney after i.p. bolus; conditions: 25 μmol/kg i.p.; for Cmax kidney / Cmax liver / Cmax pancreas / AUCtotal kidney / AUCtotal liver / AUCtotal pancreas / Kp / half-life / Kp,uu (unbound tissue-to-plasma AUC ratio) / Tmax / AUCu, kidney / AUCu, liver / AUCu, pancreas / Cmax, u kidney / Cmax, u liver / Cmax, u pancreas: mice; for AUCtotal kidney / AUCtotal liver / AUCtotal pancreas: n = 3; for Kp / half-life / Kp,uu (unbound tissue-to-plasma AUC ratio) / Tmax: mouse, ip, 25 umol/kg; for Kp: tissue/plasma partition coefficient (eq 2); for half-life: elimination half-life; for AUCu, kidney / AUCu, liver / AUCu, pancreas: unbound (eq 3); for Cmax, u kidney / Cmax, u liver / Cmax, u pancreas: unbound; for pancreas AUC, times higher in comparison to the original FA: mouse pancreas
Description: The pharmacokinetic study of FA, D1, and D2 was performed as previously described,[17] in which the pharmacokinetic parameters for the plasma and brain have been reported. Briefly, the studied compounds were dissolved in a vehicle containing 0.9% (w/v) NaCl in water, and a dose of 25 μmol/kg of the FA, D1, or D2 (n = 3 per compound at each time point) was administered as a bolus intraperitoneal (i.p.) injection for mice. The mice were anesthetized using a mixture of ketamine (140 mg/kg) and xylazine (8 mg/kg) and sacrificed by decapitation at selected time points between 10 and 360 min. The kidney, liver, and pancreas were rapidly collected, snap-frozen on dry ice, and stored at −80 °C until analyzed.
The frozen tissues were weighed and homogenized with ultrapure water (1:3 w/v) by sonicating twice for 5 s with the SoniPrep 150 Plus disintegrator (MSE Ltd., London, UK). The proteins were precipitated by diluting homogenate 1:3 (v/v) with acetonitrile containing the internal standards—chlorzoxazone for FA and diclofenac for derivatives. Samples were then centrifuged at 14 000 × g for 10 min at 4 °C. Supernatants were collected and diluted further 1:1 with ultrapure water and transferred into HPLC vials for the analysis by liquid chromatography-tandem mass spectrometry (LC–MS/MS).
Drug concentrations were analyzed using the LC–MS/MS method described previously,[17] with minor changes. Briefly, the analysis was carried out with an Agilent 1200 Series Rapid Resolution LC System with an Agilent Zorbax XBD-C18 rapid resolution high-throughput (RRHT) column (50 mm × 4.6 mm, 1.8 μm) and an Agilent 6410 triple quadrupole mass spectrometer equipped with an electrospray ionization source (Agilent Technologies, Palo Alto, CA, USA). The LC eluents were water (eluent A) and acetonitrile (eluent B), both containing 0.1% (v/v) formic acid. FA was separated with the following gradient: 0–1 min: 5% B, 1–2 min: 5% B → 90%, 2–4 min: 90% B, 4–4.1 min: 90% B → 5%, and 4.1–7 min: 5% B. For the derivatives, the gradient was as follows: 0–1 min: 10% B, 1–2 min: 10% B → 90%, 2–5 min: 90% B, 5–5.1 min: 90% B → 10%, and 5.1–8 min: 10% B. In both methods, the LC flow rate was 0.3 mL/min, the column temperature was set to 40 °C, and the sample injection volume was 5 μL.
The LC–MS/MS data acquisition for the FA was performed in a negative ion mode with the following conditions: drying gas flow 6.5 l/min with the temperature of 300 °C, nebulizer gas pressure of 20 psi, and capillary voltage of 4 000 V. MRM transitions were 193 → 149 for FA and 168 → 132 for chlorzoxazone. Fragmentor voltages were 100 and 120 V, respectively, and the collision energy was 20 V for both. For D1 and D2, the analysis was performed in a positive ion mode with the following conditions: drying gas flow of 6.5 l/min with the temperature of 300 °C, nebulizer gas pressure of 20 psi, and capillary voltage of 3 000 V. MRM transitions were 371 → 176.8 for D1, 357 → 310.9 for D2, and 296 → 250 for the diclofenac. The fragmentor voltages were 60, 40, and 100 V, and the collision energies were 16, 8, and 10 V, respectively. The data acquisition software was Agilent MassHunter Workstation software (version B.03.01), whereas Quantitative Analysis (B.09.00) software was used for data processing and analysis. The lower limit of quantification for the FA was 0.05 nmol/g and was 0.01 nmol/g for derivatives. The methods were linear, selective, accurate, and precise in the calibration range of 0.05–300 nmol/g for FA and 0.01–300 nmol/g for derivatives.
The time–concentration profiles for studied drugs were calculated using GraphPad Prism v. 5.03 software (GraphPad Software, San Diego, CA, USA). The area under curve (AUC) was calculated using the linear trapezoidal method, providing simultaneously the numeric pharmacokinetic parameters, such as tmax and Cmax. The half-life of elimination (t1/2β) was calculated from a logarithmic slope based on at least the last three detected timepoints. […]

[2] = HUVEC viability, WST-1 assay; format: cell-based, human; conditions: human, HUVEC cells; WST-1, 24 h, % of control, mean ± SD (n = 6–8)
Description: As a third in vitro toxicity study in the human blood circulation system, the effects of FA, D1, and D2 on the viability of human umbilical vein endothelial cells (HUVECs; RRID CVCL_2959; Lonza, Italy; Cat. no. CC-2517) were determined using the WST-1 assay (Takara, Takara Bio Europe, Europe, Saint-Germain-en-Laye, France), according to the previously published protocol.[32] Briefly, the cells were cultured according to the manufacturer’s guidelines with the following ingredients: EGM-2-medium + bullet kit (Lonza, Clonetics, Italy), accutase (Sigma-Aldrich, Germany), and HEPES-buffered saline solution (Lonza, Basel, Switzerland). For the assay, the cells were seeded at the density of 7 500 HUVECs per well on 96-well plates and cultured for 24 h to obtain 70% confluency. Subsequently, the cells were treated with studied compounds in multiplicate (n = 6–8) at the concentration of 0.1–100 μM in the growth medium for 24 h (37 °C, 5% CO2). Cells with untreated growth medium represented 100% viability, whereas cells treated with medium containing 0.5% (v/v) methanol served as a negative control for drug solvent. After treating cells for 24 h, medium was removed, the cells were washed with the culture medium (100 μl/well), and 100 μL of WST-1 reagent dissolved in culture medium was added into each well. The plates were incubated at 37 °C with 5% CO2 for 2 h, after which absorbance values were measured at the 450 nm wavelength using a microplate reader (iMARK, Bio-Rad). Additionally, the effects of treatments on HUVEC morphology were examined microscopically using a phase-contrast Opta-Tech inverted microscope equipped with OptaView 7 software (Opta-Tech, Warsaw, Poland) for image analysis.

[3] = kidney, read-out: t1/2β, kidney
[4] = kidney, read-out: AUCu, kidney/AUCu plasma
[5] = kidney, read-out: tmax kidney (converted)
[6] = liver, read-out: AUCu, liver/AUCu plasma
[7] = liver, read-out: tmax liver (converted)
[8] = pancreas, read-out: Kp, pancreas
[9] = pancreas, read-out: AUCu, pancreas/AUCu plasma
[10] = pancreas, read-out: tmax pancreas (converted)
[11] = pancreas, read-out: t1/2β, pancreas

Row | Structure (SMILES) | Cmax kidney [1] | Cmax liver [1] | Cmax pancreas [1] | AUCtotal kidney [1] | AUCtotal liver [1] | AUCtotal pancreas [1] | Kp ([1]; kidney, read-out: Kp, kidney) | half-life [1, 3] | Kp,uu (unbound tissue-to-plasma AUC ratio) [1, 4] | Tmax [1, 5] | Kp ([1]; liver, read-out: Kp, liver) | half-life ([1]; liver, read-out: t1/2β, liver) | Kp,uu (unbound tissue-to-plasma AUC ratio) [1, 6] | Tmax [1, 7] | Kp [1, 8] | Kp,uu (unbound tissue-to-plasma AUC ratio) [1, 9] | Tmax [1, 10] | AUCu, kidney [1] | AUCu, liver [1] | AUCu, pancreas [1] | other results
1 | COc1cc(C=CC(=O)O)ccc1O [ferulic acid, 4-hydroxy-3-methoxycinnamic acid] | 14.4 nmol/g | 18.0 nmol/g | 5.4 nmol/g | 140 nmol·min/g | 408 nmol·min/g | 40.1 nmol·min/g | 0.24 | 3.4 min | 2.21 | 10 min | 0.69 | 11.2 min | 5.5 | 10 min | 0.07 | 0.64 | 10 min | 139 nmol·min/g | 347 nmol·min/g | 40.1 nmol·min/g | Cmax, u kidney [1]: 14.3 nmol/g; Cmax, u liver [1]: 15.3 nmol/g; Cmax, u pancreas [1]: 5.4 nmol/g; viability at 24 h, 100 µM [2]: 62.6 ± 15%
2 | COc1cc(/C=C/C(=O)Nc2cccc(C[C@H](N)C(=O)O)c2)ccc1O [derivative 2] | 196 nmol/g | 66.4 nmol/g | 253 nmol/g | 3 368 nmol/g × min | 2 100 nmol/g × min | 8 172 nmol/g × min | 7.27 | 8 min | 25.7 | 10 min | 4.54 | 13.1 min | 12.4 | 10 min | 17.6 | 30.6 | 30 min | 1 028 nmol/g × min | 496 nmol·min/g | 1 226 nmol/g × min | pancreas AUC, times higher in comparison to the original FA [1]: 203.8 times; half-life [1, 11]: 33.8 min; Cmax, u kidney [1]: 59.8 nmol/g; Cmax, u liver [1]: 15.7 nmol/g; Cmax, u pancreas [1]: 38.0 nmol/g; viability at 24 h, 50 µM [2]: 73.5 ± 14.7%; viability at 24 h, 100 µM [2]: 60.3 ± 16.9%
3 | COc1cc(C=CC(=O)NCc2cccc(CC(N)C(=O)O)c2)ccc1O (stereo not drawn) [derivative 1] | 20.4 nmol/g | 44.3 nmol/g | 168 nmol/g | 415 nmol·min/g | 1 769 nmol/g × min | 5 182 nmol/g × min | 0.4 | 11.8 min | 0.74 | 10 min | 1.7 | 11.7 min | 2.9 | 10 min | 4.97 | 5.54 | 10 min | 194 nmol·min/g | 752 nmol·min/g | 1 452 nmol/g × min | pancreas AUC, times higher in comparison to the original FA [1]: 129.2 times; half-life [1, 11]: 9.9 min; Cmax, u kidney [1]: 9.6 nmol/g; Cmax, u liver [1]: 18.8 nmol/g; Cmax, u pancreas [1]: 47.1 nmol/g; viability at 24 h, 50 µM [2]: 89 ± 7.27%; viability at 24 h, 100 µM [2]: 80.7 ± 4.26%
